Ten compounds from ChEMBL document CHEMBL1201862, “PubChem BioAssay data set” (2004) can be followed below.

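Protocol summary: plate cells (96-well), add compound at 5 concentrations, incubate 48 h, interpolate endpoints linearly. At the GI50, growth is halved.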 Activity calls are given as the source filed them. No stated cut-off is given here; in the data, active = GI50 up to about 1.1 µM and inactive = higher.

Among the test systems are HCC 2998; HCT-15; CCRF-CEM; SR; M14; NCI/ADR-RES; ACHN; CAKI-1; A549; SK-OV-3; A498; SF-295; SN12C; COLO 205; SF-539; KM12; SK-MEL-28; RXF 393; SK-MEL-2; MDA-N.
Holding throughout (assay): NCI anticancer screen, dose series, 48 h

`c1ccc(CSc2nnc3c4ccccc4c4ccccc4c3n2)cc1`: the GI50 in the test on HCC 2998 was 51.1 µM (inactive); with HCT-15 it was greater than 100 µM; in the test with CCRF-CEM, 27.7 µM (inactive); in the test with SR it was 30.2 µM (inactive); in the test with M14 it was > 100 µM (inactive); in the test on NCI/ADR-RES it was 60.5 µM (inactive). Further, the GI50 was 61 µM (inactive) in the test with ACHN; 78.9 µM (inactive) in the test on CAKI-1; > 89.3 µM (inactive) in the test with A549; 17.7 µM (inactive) in the test with SK-OV-3; > 64.1 µM (inactive) in the test on A498; 23.2 µM (inactive) in the test on SF-295. Besides, the GI50 in the test on SN12C was > 93.8 µM (inactive); with COLO 205, > 100 µM (inactive); with SF-539, 31.4 µM (inactive); with KM12, > 100 µM (inactive); in the test with SK-MEL-28, > 100 µM (inactive); in the test on RXF 393, > 52.1 µM (inactive). In addition, the GI50 is 36.6 µM (inactive) in the test on SK-MEL-2 and 56.1 µM (inactive) with MDA-N.

In the case of `O=C1/C(=C/c2ccccc2)CN(C(=O)/C=C/c2ccccc2)C/C1=C\c1ccccc1`, the GI50 is 3.55 µM (inactive) in the test with HCC 2998; 6.17 µM in the test with HCT-15; 2.85 µM (inactive) with CCRF-CEM; 1.3 µM (inactive) in the test on SR; 3.63 µM (inactive) with M14; 1.86 µM (inactive) in the test on NCI/ADR-RES. Besides, the GI50 with ACHN is 14.2 µM (inactive); in the test with CAKI-1, 23.7 µM (inactive); in the test on A549, 11.1 µM (inactive); in the test on SK-OV-3 it was 27.7 µM (inactive); with A498, 33.3 µM (inactive); in the test on SF-295 it was 4.79 µM (inactive). The GI50 in the test on SN12C was 5.43 µM (inactive); in the test with COLO 205 it was 4.92 µM (inactive); with SF-539 it was 9.75 µM (inactive); in the test on KM12, 4.17 µM (inactive); in the test with SK-MEL-28, 7.62 µM (inactive); in the test with RXF 393 it was 15.6 µM (inactive). Moreover, the GI50 is 21.4 µM (inactive) in the test with SK-MEL-2 and 1.87 µM (inactive) with MDA-N.

Take `O=[N+]([O-])c1cccc2nc3ccccc3c(NCCc3cccc[n+]3[O-])c12`: the GI50 is < 0.01 µM (active) in the test on HCC 2998; less than 0.0138 µM in the test with HCT-15; < 0.0318 µM (active) in the test on CCRF-CEM; < 0.01 µM (active) in the test with SR; < 0.0105 µM (active) with M14; 0.608 µM (active) with NCI/ADR-RES. Also, the GI50 in the test with ACHN is 0.0103 µM (active); in the test with CAKI-1 it was < 0.0402 µM (active); in the test on A549 it was < 0.0159 µM (active); in the test on SK-OV-3, 0.153 µM (active); with A498, 0.0475 µM (active); in the test with SF-295, < 0.0368 µM (active). Also, the GI50 in the test on SN12C is < 0.0199 µM (active); in the test on COLO 205, < 0.01 µM (active); in the test on SF-539, 0.0407 µM (active); in the test on KM12, < 0.0328 µM (active); in the test with SK-MEL-28, < 0.01 µM (active); in the test on RXF 393, 0.0196 µM (active). Further, the GI50 in the test with SK-MEL-2 is 0.0619 µM (active); in the test with MDA-N it was 0.0153 µM (active).

As for `CSc1cc(Cl)c(C)cc1S(=O)(=O)NC(=O)NNc1ccc(C)cc1`, the GI50 in the test on HCC 2998 was 22.2 µM (inactive); in the test on HCT-15 it was greater than 100 µM; in the test with CCRF-CEM, > 100 µM (inactive); in the test with SR, 40.2 µM (inactive); with M14, > 100 µM (inactive); in the test on NCI/ADR-RES, 64.3 µM (inactive). In addition, the GI50 was 30.7 µM (inactive) in the test on ACHN; 82 µM (inactive) with CAKI-1; > 100 µM (inactive) in the test with A549; 68.9 µM (inactive) with SK-OV-3; > 100 µM (inactive) in the test with A498; > 100 µM (inactive) in the test with SF-295. The GI50 was > 100 µM (inactive) with SN12C; > 100 µM (inactive) in the test with COLO 205; > 100 µM (inactive) in the test with SF-539; 78.3 µM (inactive) in the test with KM12; > 100 µM (inactive) in the test with SK-MEL-28; > 100 µM (inactive) in the test with RXF 393. Besides, the GI50 with SK-MEL-2 was 93.3 µM (inactive); in the test on MDA-N, > 100 µM (inactive).

Turning to `COc1c(CC=C(C)C)c(O)c(C(CC(C)C)c2c(O)c3c(c(C(C)=O)c2O)OC(C(C)(C)O)C3)c(O)c1C(C)=O` (stereo not given), the GI50 was 3.63 µM (inactive) in the test with HCC 2998; 3.64 µM in the test on HCT-15; 2.58 µM (inactive) with CCRF-CEM; 2.17 µM (inactive) with SR; 6.05 µM (inactive) with M14; 3.44 µM (inactive) in the test on NCI/ADR-RES. The GI50 in the test on ACHN was 4.42 µM (inactive); in the test on CAKI-1, 3.93 µM (inactive); with A549 it was 4.21 µM (inactive); with SK-OV-3, 5.46 µM (inactive); in the test on A498 it was 3.84 µM (inactive); in the test with SF-295, 4.55 µM (inactive). The GI50 in the test with SN12C is 3.93 µM (inactive); in the test on COLO 205 it was 3.21 µM (inactive); with SF-539 it was 4.24 µM (inactive); in the test with KM12, 3.7 µM (inactive); with SK-MEL-28 it was 6.12 µM (inactive); with RXF 393 it was 3.67 µM (inactive). Moreover, the GI50 in the test on SK-MEL-2 was 4.15 µM (inactive); with MDA-N, 4.05 µM (inactive).

In the case of `Cc1cc(S(=O)(=O)NC(=C(C#N)C#N)[n+]2ccc(N(C)C)cc2)c([S-])cc1Cl`, the GI50 was > 100 µM (inactive) in the test on HCC 2998; greater than 100 µM in the test with HCT-15; > 100 µM (inactive) with CCRF-CEM; > 100 µM (inactive) with SR; > 100 µM (inactive) in the test with M14; > 100 µM (inactive) with NCI/ADR-RES. Also, the GI50 in the test with ACHN, in the test on CAKI-1, with A549, in the test on SK-OV-3, in the test on A498 and with SF-295 was > 100 µM (inactive) in each case. For the same compound, the GI50 in the test with SN12C, with COLO 205, in the test with SF-539, in the test with KM12, in the test on SK-MEL-28 and in the test with RXF 393 was > 100 µM (inactive) throughout. Moreover, the GI50 in the test with SK-MEL-2 and with MDA-N was > 100 µM (inactive) each time.

Take `Cc1nc(-c2ccc(Cl)cc2)cn2c1nc1ccccc12`: the GI50 was > 100 µM (inactive) in the test on HCC 2998; 19.4 µM with HCT-15; 23.5 µM (inactive) in the test on CCRF-CEM; 90.6 µM (inactive) in the test with SR; > 72.3 µM (inactive) in the test with M14; > 86.3 µM (inactive) in the test on NCI/ADR-RES. Moreover, the GI50 in the test on ACHN, in the test on CAKI-1, with A549, in the test with SK-OV-3, in the test with A498 and in the test with SF-295 was > 100 µM (inactive) in each case. The GI50 in the test with SN12C was > 100 µM (inactive); in the test with COLO 205, > 43.3 µM (inactive); with SF-539 it was > 61.4 µM (inactive); in the test on KM12 it was > 82.6 µM (inactive); with SK-MEL-28 it was > 100 µM (inactive); in the test on RXF 393, > 100 µM (inactive). Besides, the GI50 in the test with SK-MEL-2 and in the test with MDA-N was > 100 µM (inactive) each time.

`C[N+](C)(C)CC(=O)N/N=C(\C(=O)NC1=C(Cl)C(=O)c2ccccc2C1=O)C(C#N)c1nc(-c2ccc([N+](=O)[O-])cc2)cs1` (stereo not given): the GI50 was 14.1 µM (inactive) in the test on HCC 2998; 5.36 µM in the test on HCT-15; 8.28 µM (inactive) in the test on CCRF-CEM; 5.62 µM (inactive) in the test with SR; 3.15 µM (inactive) with M14; 11.7 µM (inactive) with NCI/ADR-RES. For the same compound, the GI50 in the test on ACHN is 10.6 µM (inactive); in the test on CAKI-1, 26.2 µM (inactive); with A549, 4.54 µM (inactive); in the test with SK-OV-3, 21.1 µM (inactive); in the test with A498 it was 16.9 µM (inactive); in the test on SF-295 it was 6.37 µM (inactive). In addition, the GI50 with SN12C is 9.42 µM (inactive); in the test on COLO 205 it was 17.2 µM (inactive); in the test with SF-539, 8.38 µM (inactive); in the test on KM12, 14.6 µM (inactive); with SK-MEL-28, 6.1 µM (inactive); in the test on RXF 393, 11.2 µM (inactive). For the same compound, the GI50 in the test with SK-MEL-2 is 4.46 µM (inactive); in the test on MDA-N, 1.74 µM (inactive).

As to `O=C(O)CP(=O)(O)O`, the GI50 in the test with HCC 2998 was > 100 µM (inactive); in the test on HCT-15, greater than 100 µM; in the test with CCRF-CEM it was > 100 µM (inactive); with SR, > 100 µM (inactive); in the test on M14, > 100 µM (inactive); in the test with NCI/ADR-RES, > 100 µM (inactive). Moreover, the GI50 with ACHN, in the test on CAKI-1, with A549, in the test with SK-OV-3, with A498 and with SF-295 was > 100 µM (inactive) in each case. Moreover, the GI50 in the test on SN12C, in the test with COLO 205, in the test with SF-539, in the test on KM12, with SK-MEL-28 and in the test on RXF 393 was > 100 µM (inactive) each time. For the same compound, the GI50 in the test on SK-MEL-2 and in the test with MDA-N was > 100 µM (inactive) in each case.

Consider `CC(C)C(C/C=C1/CC(CO)(COC(=O)C2CCCCC2)OC1=O)C(C)C` (stereo not given), for which the GI50 in the test with HCC 2998 was 26.1 µM (inactive); in the test with HCT-15 it was 21.6 µM; with CCRF-CEM, 17.2 µM (inactive); with SR it was 28 µM (inactive); with M14, 17.3 µM (inactive); with NCI/ADR-RES, 21.3 µM (inactive). The GI50 with ACHN is 13.3 µM (inactive); with CAKI-1, 15.2 µM (inactive); in the test on A549, 12.5 µM (inactive); in the test on SK-OV-3, > 100 µM (inactive); with A498, 20.4 µM (inactive); in the test on SF-295 it was 14.2 µM (inactive). For the same compound, the GI50 is 16.8 µM (inactive) with SN12C; 5.94 µM (inactive) in the test with COLO 205; 14.2 µM (inactive) with SF-539; 21.1 µM (inactive) in the test on KM12; 18.6 µM (inactive) in the test with SK-MEL-28; 21.5 µM (inactive) in the test with RXF 393. Moreover, the GI50 in the test on SK-MEL-2 is > 100 µM (inactive); in the test with MDA-N, 19.1 µM (inactive).
